# Patent US12077503B2, “Substituted cyclic amides and their use as herbicides” (FMC CORPORATION, priority 2015, dated 2024)
# Tests used:
# Experiment in all cases: Test C preemergence
# Format in all cases: in vivo
# [1] = system: waterhemp (common waterhemp, Amaranthus rudis); settings: for Plant response rating, Waterhemp: scale 0 to 100, 0 no effect, 100 complete control
# Summary of the method: (§1)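 Scores of 0 to 100 reflect visual comparison with control plants, where 0 means no effect and 100 complete control, made 13 to 15 d after treatment. Application was preemergence to seeds in loam-sand soil or postemergence to plants 2 to 18 cm tall in peat-based mix, using a surfactant-containing solvent formulation.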
# [2] = system: barnyardgrass (Echinochloa crus-galli); settings: for Plant response rating, Barnyardgrass: scale 0 to 100, 0 no effect, 100 complete control
# Summary of the method: as §1
# [3] = system: crabgrass, large (large crabgrass, Digitaria sanguinalis); settings: for Plant response rating, Crabgrass, Large: scale 0 to 100, 0 no effect, 100 complete control
# Summary of the method: as §1
# [4] = system: oilseed rape (Brassica napus); settings: for Plant response rating, Oilseed Rape: scale 0 to 100, 0 no effect, 100 complete control
# Summary of the method: as §1
# [5] = system: nutsedge, yellow (yellow nutsedge, Cyperus esculentus); settings: for Plant response rating, Nutsedge, Yellow: scale 0 to 100, 0 no effect, 100 complete control
# Summary of the method: as §1
# [6] = system: corn (Zea mays); settings: for Plant response rating, Corn: scale 0 to 100, 0 no effect, 100 complete control
# Summary of the method: as §1
# [7] = system: ryegrass, Italian (Italian ryegrass, Lolium multiflorum); settings: for Plant response rating, Ryegrass, Italian: scale 0 to 100, 0 no effect, 100 complete control
# Summary of the method: as §1
# [8] = system: johnsongrass (Sorghum halepense); settings: for Plant response rating, Johnsongrass: scale 0 to 100, 0 no effect, 100 complete control
# Summary of the method: as §1
# [9] = system: foxtail, giant (giant foxtail, Setaria faberii); settings: for Plant response rating, Foxtail, Giant: scale 0 to 100, 0 no effect, 100 complete control
# Summary of the method: as §1
# [10] = system: Galium (catchweed bedstraw, Galium aparine); settings: for Plant response rating, Galium: scale 0 to 100, 0 no effect, 100 complete control
# Summary of the method: as §1
# [11] = system: ragweed (common ragweed, Ambrosia elatior); settings: for Plant response rating, Ragweed: scale 0 to 100, 0 no effect, 100 complete control
# Summary of the method: as §1
# [12] = system: velvetleaf (Abutilon theophrasti); settings: for Plant response rating, Velvetleaf: scale 0 to 100, 0 no effect, 100 complete control
# Summary of the method: as §1
# [13] = system: morningglory (Ipomoea coccinea); settings: for Plant response rating, Morningglory: scale 0 to 100, 0 no effect, 100 complete control
# Summary of the method: as §1
# [14] = system: wheat (winter wheat, Triticum aestivum); settings: for Plant response rating, Wheat: scale 0 to 100, 0 no effect, 100 complete control
# Summary of the method: as §1
# [15] = system: lambsquarters (Chenopodium album); settings: for Plant response rating, Lambsquarters: scale 0 to 100, 0 no effect, 100 complete control
# Summary of the method: as §1
# [16] = system: blackgrass (Alopecurus myosuroides); settings: for Plant response rating, Blackgrass: scale 0 to 100, 0 no effect, 100 complete control
# Summary of the method: as §1
# [17] = system: soybean (Glycine max); settings: for Plant response rating, Soybean: scale 0 to 100, 0 no effect, 100 complete control
# Summary of the method: as §1
# [18] = system: pigweed (Amaranthus retroflexus); settings: for Plant response rating, Pigweed: scale 0 to 100, 0 no effect, 100 complete control
# Summary of the method: as §1
# [19] = 31 g ai/ha, 0 is no effect, 100 is complete control
compound,measurement,setting,value
"CN1C[C@H](c2ccc(F)c(F)c2)[C@@H](C(=O)Nc2ccccc2F)C1=O [Compound 596, (3S,4S)-4-(3,4-difluorophenyl)-N-(2-fluorophenyl)-1-methyl-2-oxo-3-pyrrolidinecarboxamide]","Plant response rating (scale of 0 to 100), Waterhemp",[1]; [19],0
same,"Plant response rating, Waterhemp",[1]; 62 g ai/ha,0
same,"Plant response rating, Waterhemp",[1]; 125 g ai/ha,25
same,"Plant response rating, Waterhemp",[1]; 250 g ai/ha,65
same,"Plant response rating (scale of 0 to 100), Barnyardgrass",[2]; [19],90
same,"Plant response rating, Barnyardgrass",[2]; 62 g ai/ha,95
same,"Plant response rating, Barnyardgrass",[2]; 125 g ai/ha,95
same,"Plant response rating, Barnyardgrass",[2]; 250 g ai/ha,95
same,"Plant response rating (scale of 0 to 100), Crabgrass, Large",[3]; [19],95
same,"Plant response rating, Crabgrass, Large",[3]; 62 g ai/ha,100
same,"Plant response rating, Crabgrass, Large",[3]; 125 g ai/ha,100
same,"Plant response rating, Crabgrass, Large",[3]; 250 g ai/ha,100
same,"Plant response rating (scale of 0 to 100), Oilseed Rape",[4]; [19],0
same,"Plant response rating, Oilseed Rape",[4]; 62 g ai/ha,0
same,"Plant response rating, Oilseed Rape",[4]; 125 g ai/ha,30
same,"Plant response rating, Oilseed Rape",[4]; 250 g ai/ha,90
same,"Plant response rating (scale of 0 to 100), Nutsedge, Yellow",[5]; [19],0
same,"Plant response rating, Nutsedge, Yellow",[5]; 62 g ai/ha,0
same,"Plant response rating, Nutsedge, Yellow",[5]; 125 g ai/ha,0
same,"Plant response rating, Nutsedge, Yellow",[5]; 250 g ai/ha,0
same,"Plant response rating (scale of 0 to 100), Corn",[6]; [19],0
same,"Plant response rating, Corn",[6]; 62 g ai/ha,0
same,"Plant response rating, Corn",[6]; 125 g ai/ha,0
same,"Plant response rating, Corn",[6]; 250 g ai/ha,35
same,"Plant response rating (scale of 0 to 100), Ryegrass, Italian",[7]; [19],0
same,"Plant response rating, Ryegrass, Italian",[7]; 62 g ai/ha,0
same,"Plant response rating, Ryegrass, Italian",[7]; 125 g ai/ha,30
same,"Plant response rating, Ryegrass, Italian",[7]; 250 g ai/ha,45
same,"Plant response rating (scale of 0 to 100), Johnsongrass",[8]; [19],20
same,"Plant response rating, Johnsongrass",[8]; 62 g ai/ha,25
same,"Plant response rating, Johnsongrass",[8]; 125 g ai/ha,70
same,"Plant response rating, Johnsongrass",[8]; 250 g ai/ha,75
same,"Plant response rating (scale of 0 to 100), Foxtail, Giant",[9]; [19],90
same,"Plant response rating, Foxtail, Giant",[9]; 62 g ai/ha,90
same,"Plant response rating, Foxtail, Giant",[9]; 125 g ai/ha,95
same,"Plant response rating, Foxtail, Giant",[9]; 250 g ai/ha,100
same,"Plant response rating (scale of 0 to 100), Galium",[10]; [19],30
same,"Plant response rating, Galium",[10]; 62 g ai/ha,85
same,"Plant response rating, Galium",[10]; 125 g ai/ha,40
same,"Plant response rating, Galium",[10]; 250 g ai/ha,85
same,"Plant response rating (scale of 0 to 100), Ragweed",[11]; [19],10
same,"Plant response rating, Ragweed",[11]; 62 g ai/ha,20
same,"Plant response rating, Ragweed",[11]; 125 g ai/ha,50
same,"Plant response rating, Ragweed",[11]; 250 g ai/ha,75
same,"Plant response rating (scale of 0 to 100), Velvetleaf",[12]; [19],10
same,"Plant response rating, Velvetleaf",[12]; 62 g ai/ha,20
same,"Plant response rating, Velvetleaf",[12]; 125 g ai/ha,30
same,"Plant response rating, Velvetleaf",[12]; 250 g ai/ha,55
same,"Plant response rating (scale of 0 to 100), Morningglory",[13]; [19],0
same,"Plant response rating, Morningglory",[13]; 62 g ai/ha,0
same,"Plant response rating, Morningglory",[13]; 125 g ai/ha,10
same,"Plant response rating, Morningglory",[13]; 250 g ai/ha,20
same,"Plant response rating (scale of 0 to 100), Wheat",[14]; [19],15
same,"Plant response rating, Wheat",[14]; 62 g ai/ha,45
same,"Plant response rating, Wheat",[14]; 125 g ai/ha,50
same,"Plant response rating, Wheat",[14]; 250 g ai/ha,70
same,"Plant response rating (scale of 0 to 100), Lambsquarters",[15]; [19],10
same,"Plant response rating, Lambsquarters",[15]; 62 g ai/ha,60
same,"Plant response rating, Lambsquarters",[15]; 125 g ai/ha,70
same,"Plant response rating, Lambsquarters",[15]; 250 g ai/ha,75
same,"Plant response rating (scale of 0 to 100), Blackgrass",[16]; [19],0
same,"Plant response rating, Blackgrass",[16]; 62 g ai/ha,40
same,"Plant response rating, Blackgrass",[16]; 125 g ai/ha,70
same,"Plant response rating, Blackgrass",[16]; 250 g ai/ha,90
same,"Plant response rating (scale of 0 to 100), Soybean",[17]; [19],0
same,"Plant response rating, Soybean",[17]; 62 g ai/ha,0
same,"Plant response rating, Soybean",[17]; 125 g ai/ha,0
same,"Plant response rating, Soybean",[17]; 250 g ai/ha,100
same,"Plant response rating (scale of 0 to 100), Pigweed",[18]; [19],20
same,"Plant response rating, Pigweed",[18]; 62 g ai/ha,25
same,"Plant response rating, Pigweed",[18]; 125 g ai/ha,40
same,"Plant response rating, Pigweed",[18]; 250 g ai/ha,55
